According to ChEMBL document CHEMBL1137475, “Design, synthesis, and docking studies of new 1,3,4-thiadiazole-2-thione derivatives with carbonic anhydrase inhibitory activity” (Bioorg Med Chem, 2007):

These compounds were tested against Carbonic anhydrase 2 (Homo sapiens, UniProt P00918).

Row | SMILES | Ki [µM]
1 | O=C(N/N=C/c1ccccc1[N+](=O)[O-])Nc1n[nH]c(=S)s1 | 433
2 | COc1ccc(/C=N/NC(=O)Nc2n[nH]c(=S)s2)cc1 | 350
3 | O=C(N/N=C/c1ccccc1)Nc1n[nH]c(=S)s1 | 354
4 | COc1cc(/C=N/NC(=O)Nc2n[nH]c(=S)s2)ccc1O | 386
5 | O=C(N/N=C/c1cccc(Br)c1)Nc1n[nH]c(=S)s1 | 236
6 | O=C(N/N=C/c1ccc(Br)cc1)Nc1n[nH]c(=S)s1 | 360
7 | C/C(=N\NC(=O)Nc1n[nH]c(=S)s1)c1ccc(O)cc1 | 350
8 | COc1ccc(/C(C)=N/NC(=O)Nc2n[nH]c(=S)s2)cc1 | 346
9 | O=C(N/N=C/c1ccccc1Cl)Nc1n[nH]c(=S)s1 | 412

These compounds were tested against Carbonic anhydrase 1 (Homo sapiens, UniProt P00915).
Carbonic anhydrase 1, sequence (P00915 whole entry): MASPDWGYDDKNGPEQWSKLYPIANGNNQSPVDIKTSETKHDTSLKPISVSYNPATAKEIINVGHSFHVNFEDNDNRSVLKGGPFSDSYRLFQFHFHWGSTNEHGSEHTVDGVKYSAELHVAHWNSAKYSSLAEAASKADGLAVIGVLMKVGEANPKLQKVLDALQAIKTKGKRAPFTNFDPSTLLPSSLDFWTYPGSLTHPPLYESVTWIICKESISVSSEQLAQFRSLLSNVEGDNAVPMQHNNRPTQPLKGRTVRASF

Row | SMILES | Ki [µM]
10 | O=C(N/N=C/c1ccccc1[N+](=O)[O-])Nc1n[nH]c(=S)s1 | 223
11 | CN(C)c1ccccc1/C=N/NC(=O)Nc1n[nH]c(=S)s1 | 125
12 | C/C(=N\NC(=O)Nc1n[nH]c(=S)s1)c1ccc(Cl)cc1 | 144

These compounds were tested against Carbonic anhydrase 9 (Homo sapiens, UniProt Q16790).

Row | SMILES | Ki [µM]
13 | O=C(N/N=C/c1ccccc1[N+](=O)[O-])Nc1n[nH]c(=S)s1 | 24
14 | COc1ccc(/C=N/NC(=O)Nc2n[nH]c(=S)s2)cc1 | 24
15 | O=C(N/N=C/c1ccccc1)Nc1n[nH]c(=S)s1 | 23
16 | COc1cc(/C=N/NC(=O)Nc2n[nH]c(=S)s2)ccc1O | 26
17 | O=C(N/N=C/c1cccc(Br)c1)Nc1n[nH]c(=S)s1 | 10.1
18 | O=C(N/N=C/c1ccc(Br)cc1)Nc1n[nH]c(=S)s1 | 22
19 | CN(C)c1ccccc1/C=N/NC(=O)Nc1n[nH]c(=S)s1 | 3.35
20 | C/C(=N\NC(=O)Nc1n[nH]c(=S)s1)c1ccc(Br)cc1 | 6.85
21 | C/C(=N\NC(=O)Nc1n[nH]c(=S)s1)c1ccc([N+](=O)[O-])cc1 | 7.54
22 | O=C(N/N=C/c1ccco1)Nc1n[nH]c(=S)s1 | 5.75
23 | C/C(=N\NC(=O)Nc1n[nH]c(=S)s1)c1ccccc1 | 7.44
24 | C/C(=N\NC(=O)Nc1n[nH]c(=S)s1)c1ccc(C)cc1 | 149
25 | C/C(=N\NC(=O)Nc1n[nH]c(=S)s1)c1ccc(O)cc1 | 21
26 | O=C(NN=C(c1ccccc1)c1ccccc1)Nc1n[nH]c(=S)s1 | 8.43
27 | COc1ccc(/C(C)=N/NC(=O)Nc2n[nH]c(=S)s2)cc1 | 20
28 | O=C(NN=C1C(=O)Nc2ccc(Br)cc21)Nc1nnc(S)s1 | 7.18
29 | O=C(NN=C1C(=O)Nc2ccc([N+](=O)[O-])cc21)Nc1nnc(S)s1 | 1.25
30 | NNC(=O)Nc1n[nH]c(=S)s1 | 9.3
31 | O=C(N/N=C/c1ccc([N+](=O)[O-])cc1)Nc1n[nH]c(=S)s1 | 10
32 | C/C(=N\NC(=O)Nc1n[nH]c(=S)s1)c1ccc(Cl)cc1 | 8.55
33 | O=C(N/N=C1\C(=O)Nc2ccccc21)Nc1n[nH]c(=S)s1 | 9.4
34 | O=C(N/N=C/c1ccccc1Cl)Nc1n[nH]c(=S)s1 | 29
35 | O=C(N/N=C/c1ccc(Cl)cc1)Nc1n[nH]c(=S)s1 | 118
36 | O=C(N/N=C/c1ccc(F)cc1)Nc1n[nH]c(=S)s1 | 7.53
37 | COc1cccc(/C=N/NC(=O)Nc2n[nH]c(=S)s2)c1 | 7.13
38 | O=C(N/N=C/c1cccnc1)Nc1n[nH]c(=S)s1 | 5.05
